Data reported in patent US20200069648A1, “HALOALLYLAMINE PYRAZOLE DERIVATIVE INHIBITORS OF LYSYL OXIDASES AND USES THEREOF” (Pharmaxis Ltd., priority 2017, published 2020).
Counter-ions that a name gives are not always drawn.

Biological target: T1, human recombinant SSAO/VAP-1 (Homo sapiens, UniProt Q16853)
T1 construct: a cloned cDNA template corresponding to residues 34-763 of human SSAO/VAP-1; TEV cleavage site (N); made in house
T1 sequence (Q16853 34-763): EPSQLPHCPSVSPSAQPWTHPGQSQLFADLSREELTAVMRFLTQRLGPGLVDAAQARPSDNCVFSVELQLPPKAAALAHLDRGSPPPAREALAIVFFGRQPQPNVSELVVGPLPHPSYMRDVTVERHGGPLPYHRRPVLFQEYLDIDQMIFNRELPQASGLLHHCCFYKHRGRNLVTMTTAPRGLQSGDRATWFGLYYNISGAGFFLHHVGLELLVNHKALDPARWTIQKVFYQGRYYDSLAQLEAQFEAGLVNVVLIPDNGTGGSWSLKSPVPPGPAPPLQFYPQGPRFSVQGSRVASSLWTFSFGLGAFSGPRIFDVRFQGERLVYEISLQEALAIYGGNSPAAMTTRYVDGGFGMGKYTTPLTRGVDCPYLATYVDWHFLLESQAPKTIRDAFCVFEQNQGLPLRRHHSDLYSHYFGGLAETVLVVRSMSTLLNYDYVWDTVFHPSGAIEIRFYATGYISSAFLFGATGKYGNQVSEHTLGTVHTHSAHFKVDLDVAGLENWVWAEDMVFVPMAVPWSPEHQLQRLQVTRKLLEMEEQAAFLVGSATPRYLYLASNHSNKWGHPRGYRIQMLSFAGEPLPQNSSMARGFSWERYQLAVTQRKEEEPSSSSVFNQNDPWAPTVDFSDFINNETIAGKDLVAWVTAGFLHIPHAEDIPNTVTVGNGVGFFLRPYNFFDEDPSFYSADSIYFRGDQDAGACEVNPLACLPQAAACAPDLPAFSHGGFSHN
Assay: Human recombinant SSAO/VAP-1 amine oxidase inhibition
Format: biochemical
Conditions: 30 min preincubation at 37° C., 600 μM benzylamine
Experimental: Method to Determine the Ability of Compounds of Formula I to Inhibit Human Recombinant SSAO/VAP-1
Human recombinant SSAO/VAP-1 amine oxidase activity was determined using the coupled colorimetric method as described for monoamine oxidase, copper-containing amine oxidases and related enzymes (Holt A. and Palcic M., A peroxidase-coupled continuous absorbance plate-reader assay for flavin monoamine oxidases, copper-containing amine oxidases and related enzymes. Nat Protoc 2006; 1: 2498-2505). Briefly, a cloned cDNA template corresponding to residues 34-763 of human SSAO/VAP-1, and incorporating a mouse Ig kappa (κ) signal sequence, N-terminal flag epitope tag and tobacco etch virus (TEV) cleavage site, was assembled in a mammalian expression vector (pLO-CMV) by Geneart AG. This vector containing human SSAO/VAP-1 residues was transfected into CHO-K1 glycosylation mutant cell line, Lec 8. A clone stably expressing human SSAO/VAP-1 was isolated and cultured in large scale. Active human SSAO/VAP-I was purified and recovered using immunoaffinity chromatography. This was used as the source for SSAO/VAP-1 activity. A high-throughput colorimetric assay was developed using either 96 or 384 well format. Briefly, in a standard 96 well plate assay 50 μL of purified human SSAO/VAP-1 (0.25 μg/mL) in 0.1 M sodium phosphate buffer (pH 7.4) was added into each well. Test compounds were dissolved in DMSO and tested in a Concentration Response Curve (CRC) with 4-11 data points, typically in the micromolar or nanomolar range after incubation with human SSAO/VAP-1 for 30 min at 37° C. After 30 min incubation, 50 μL of the reaction mixture containing 600 μM benzylamine (Sigma Aldrich), 120 μM Amplex Red (Sigma Aldrich) and 1.5 U/mL horseradish peroxidase (Sigma Aldrich) prepared in 0.1 M sodium phosphate buffer (pH 7.4) were added to the corresponding well. The fluorescence unit (RFU) was read every 2.5 min for 30 min at 37° C. excitation 565 nm and emission 590 (Optima; BMG labtech). The slope of the kinetics for each well was calculated using MARS data analysis software (BMG labtech) and this value was used to deduce the IC50 value (Dotmatics).

Compound	IC50 [µM]
N#CCCN [BAPN, β-aminopropionitrile, reference compound]	> 100
CN(C)S(=O)(=O)c1ccc(-c2cnn(C/C(F)=C/CN)c2)cc1 [Compound 1, (Z)-4-(1-(4-amino-2-fluorobut-2-en-1-yl)-1H-pyrazol-4-yl)-N,N-dimethyl benzenesulfonamide hydrochloride]	< 10
Cc1nn(C/C(F)=C/CN)c(C)c1Cc1ccc(S(=O)(=O)N(C)C)cc1 [Compound 2, (Z)-4-((1-(4-amino-2-fluorobut-2-en-1-yl)-3,5-dimethyl-1H-pyrazol-4-yl)methyl)-N,N-dimethylbenzenesulfonamide hydrochloride]	> 30
Cc1nn(C/C(F)=C/CN)c(C)c1Cc1ccc(S(=O)(=O)N(C)C)cc1Cl [Compound 3, (Z)-4-((1-(4-amino-2-fluorobut-2-en-1-yl)-3,5-dimethyl-1H-pyrazol-4-yl)methyl)-3-chloro-N,N-dimethylbenzenesulfonamide hydrochloride]	> 30
Cc1nn(C/C(F)=C/CN)c(C)c1Cc1ccc(S(C)(=O)=O)cc1 [Compound 4, (Z)-4-(3,5-dimethyl-4-(4-(methylsulfonyl)benzyl)-1H-pyrazol-1-yl)-3-fluorobut-2-en-1-amine hydrochloride]	> 30
Cc1nn(C/C(F)=C/CN)c(C)c1Cc1cccc(S(=O)(=O)N(C)C)c1 [Compound 5, (Z)-3-((1-(4-amino-2-fluorobut-2-en-1-yl)-3,5-dimethyl-1H-pyrazol-4-yl)methyl)-N,N-dimethyl benzenesulfonamide hydrochloride]	> 30
Cc1nn(C/C(F)=C/CN)c(C)c1Cc1ccc(S(=O)(=O)N2CCOCC2)cc1 [Compound 6, (Z)-4-(3,5-dimethyl-4-(4-(morpholinosulfonyl)benzyl)-1H-pyrazol-1-yl)-3-fluorobut-2-en-1-amine hydrochloride]	> 30
Cc1nn(C/C(F)=C/CN)c(C)c1Cc1ccc(S(=O)(=O)N2CCCC2)cc1 [Compound 7, (Z)-4-(3,5-dimethyl-4-(4-(pyrrolidin-1-ylsulfonyl)benzyl)-1H-pyrazol-1-yl)-3-fluorobut-2-en-1-amine hydrochloride]	> 10
Cc1nn(C/C(F)=C/CN)c(C)c1Cc1ccc(S(=O)(=O)N(C)C(C)C)cc1 [Compound 8, (Z)-4-((1-(4-amino-2-fluorobut-2-en-1-yl)-3,5-dimethyl-1H-pyrazol-4-yl)methyl)-N-isopropyl-N-methylbenzenesulfonamide hydrochloride]	> 10
Cc1nn(C/C(F)=C/CN)c(C)c1Cc1ccc(S(=O)(=O)N(C)C)c2ccccc12 [Compound 9, (Z)-4-((1-(4-amino-2-fluorobut-2-en-1-yl)-3,5-dimethyl-1H-pyrazol-4-yl)methyl)-N,N-dimethyl naphthalene-1-sulfonamide hydrochloride]	> 10
Cc1nn(Cc2ccc(S(=O)(=O)N(C)C)cc2)c(C)c1C/C(F)=C/CN [Compound 10, (Z)-4-((4-(4-amino-2-fluorobut-2-en-1-yl)-3,5-dimethyl-1H-pyrazol-1-yl)methyl)-N,N-dimethylbenzenesulfonamide hydrochloride]	< 10
Cc1nn(C/C(F)=C/CN)c(C)c1Cc1ccc(S(=O)(=O)NC(C)C)cc1 [Compound 11, (Z)-4-((1-(4-amino-2-fluorobut-2-en-1-yl)-3,5-dimethyl-1H-pyrazol-4-yl)methyl)-N-isopropyl benzenesulfonamide hydrochloride]	< 10
Cc1nn(C/C(F)=C/CN)c(C)c1Cc1ccc(S(C)(=O)=O)cc1Cl [Compound 12, (Z)-4-(4-(2-chloro-4-(methylsulfonyl)benzyl)-3,5-dimethyl-1H-pyrazol-1-yl)-3-fluorobut-2-en-1-amine hydrochloride]	< 10
CCc1nn(C/C(F)=C/CN)c(CC)c1Cc1ccc(S(=O)(=O)N(C)C)cc1 [Compound 13, (Z)-4-((1-(4-amino-2-fluorobut-2-en-1-yl)-3,5-diethyl-1H-pyrazol-4-yl)methyl)-N,N-dimethyl benzenesulfonamide hydrochloride]	> 30
Cc1nn(C/C(F)=C/CN)c(C)c1Cc1ccc(S(=O)(=O)N(C)C)c(Cl)c1 [Compound 15, (Z)-4-((1-(4-amino-2-fluorobut-2-en-1-yl)-3,5-dimethyl-1H-pyrazol-4-yl)methyl)-2-chloro-N,N-dimethylbenzenesulfonamide hydrochloride]	< 10

Other lines, results leading:

IC50 [µM]	Compound
> 30	Cc1nn(C/C(F)=C/CN)c(C(C)O)c1Cc1ccc(S(=O)(=O)N(C)C)c(Cl)c1 (single isomer, unassigned) [Compound 52, (Z)-4-((1-(4-amino-2-fluorobut-2-en-1-yl)-5-(1-hydroxyethyl)-3-methyl-1H-pyrazol-4-yl)methyl)-2-chloro-N,N-dimethylbenzenesulfonamide hydrochloride]
> 30	Cc1nn(C/C(F)=C/CN)c(C(C)O)c1Cc1ccc(S(=O)(=O)N(C)C)c(Cl)c1 (single isomer, unassigned) [Compound 53, (Z)-4-((1-(4-amino-2-fluorobut-2-en-1-yl)-5-(1-hydroxyethyl)-3-methyl-1H-pyrazol-4-yl)methyl)-2-chloro-N,N-dimethylbenzenesulfonamide hydrochloride]
> 30	Cc1nn(C/C(F)=C/CN)c(C)c1Cc1ccc(C(=O)N(C)C)cc1 [Compound 14, (Z)-4-((1-(4-amino-2-fluorobut-2-en-1-yl)-3,5-dimethyl-1H-pyrazol-4-yl)methyl)-N,N-dimethylbenzamide hydrochloride]
> 10	Cc1nn(C/C(F)=C/CN)c(C)c1Cc1ccc(S(C)(=O)=O)c(Cl)c1 [Compound 16, (Z)-4-(4-(3-chloro-4-(methylsulfonyl)benzyl)-3,5-dimethyl-1H-pyrazol-1-yl)-3-fluorobut-2-en-1-amine hydrochloride]
> 10	Cc1nn(C/C(F)=C/CN)c(C)c1Cc1ccc(S(=O)(=O)N(C)C)c(OC(F)(F)F)c1 [Compound 17, (Z)-4-((1-(4-amino-2-fluorobut-2-en-1-yl)-3,5-dimethyl-1H-pyrazol-4-yl)methyl)-N,N-dimethyl-2-(trifluoromethoxy)benzenesulfonamide hydrochloride]
> 30	Cc1nn(C/C(F)=C/CN)c(C)c1Cc1ccc(S(=O)(=O)N(C)C)c(C(F)(F)F)c1 [Compound 18, (Z)-4-((1-(4-amino-2-fluorobut-2-en-1-yl)-3,5-dimethyl-1H-pyrazol-4-yl)methyl)-N,N-dimethyl-2-(trifluoromethyl)benzenesulfonamide hydrochloride]
> 30	Cc1nn(C/C(F)=C/CN)c(C)c1Cc1cc(F)c(S(=O)(=O)N(C)C)cc1F [Compound 19, (Z)-4-((1-(4-amino-2-fluorobut-2-en-1-yl)-3,5-dimethyl-1H-pyrazol-4-yl)methyl)-2,5-difluoro-N,N-dimethylbenzenesulfonamide hydrochloride]
< 10	CNS(=O)(=O)c1ccc(Cn2nc(C)c(C/C(F)=C/CN)c2C)c(Cl)c1 [Compound 20, (Z)-4-((4-(4-amino-2-fluorobut-2-en-1-yl)-3,5-dimethyl-1H-pyrazol-1-yl)methyl)-3-chloro-N-methylbenzenesulfonamide hydrochloride]
< 10	Cc1nn(Cc2ccc(S(C)(=O)=O)cc2Cl)c(C)c1C/C(F)=C/CN [Compound 21, (Z)-4-(1-(2-chloro-4-(methylsulfonyl)benzyl)-3,5-dimethyl-1H-pyrazol-4-yl)-3-fluorobut-2-en-1-amine hydrochloride]
